Measured values taken from patent publication US20140066465A1, “CANCER TREATMENT USING TYROSINE KINASE AND NF-kB INHIBITORS” (The Cleveland Clinic Foundation, priority 2012, published 2014).

Columns and labels:
[1] = system: sensitive cell lines; experiment: MTT cell survival assay, single drug; format: cell-based; conditions: single drug treatment
Experimental: (§1) The cells were plated in 96-well plates at 2500-3000 cells per well, and allowed to attach overnight, with 6 replicates being used for each dose. First, the inventors detected the IC50 with single drug treatment for each cell line.

[2] = in vivo; cited from earlier work
[3] = target: CYP3A4 (Homo sapiens, UniProt P08684); conditions: cited from earlier work
CYP3A4, sequence (P08684 whole entry): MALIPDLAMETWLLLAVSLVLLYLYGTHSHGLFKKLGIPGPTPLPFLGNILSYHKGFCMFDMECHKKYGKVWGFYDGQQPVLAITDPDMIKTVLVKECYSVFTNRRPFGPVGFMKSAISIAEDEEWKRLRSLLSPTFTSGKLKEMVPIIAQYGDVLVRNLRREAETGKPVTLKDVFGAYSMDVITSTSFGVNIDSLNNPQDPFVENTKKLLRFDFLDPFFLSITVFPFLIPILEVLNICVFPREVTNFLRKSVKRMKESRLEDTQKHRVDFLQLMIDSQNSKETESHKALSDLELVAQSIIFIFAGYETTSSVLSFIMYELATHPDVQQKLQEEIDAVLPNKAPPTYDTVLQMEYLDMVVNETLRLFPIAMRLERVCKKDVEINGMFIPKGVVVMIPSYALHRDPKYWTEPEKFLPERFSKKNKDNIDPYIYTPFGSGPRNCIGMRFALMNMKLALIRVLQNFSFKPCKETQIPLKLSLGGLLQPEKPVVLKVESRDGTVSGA

[4] = system: erlotinib-resistant NSCLC cell lines (A549, H1975, and H1993); experiment: cells
Experimental: Erlotinib-resistance NSCLC cell lines A549, H1975, and H1993 were used.
as §1

[5] = system: NF-κB; conditions: A549 or H1975 reporter cells; pretreated, then interleukin-1 for 6 h
Experimental: (§2) The reporter cells were then seeded in 96-well plates at 1-2×10^3 per well, allowed to attach overnight, and then treated with drugs and/or IL-1. Cells were then harvested in reporter lysis buffer (Promega) and assayed for luciferase activity using the luciferase assay system (Promega).

[6] = system: xenograft tumors originating from human renal cell carcinoma; conditions: mice; cited from earlier work
[7] = system: NF-κB
Experimental: as §2, with “For the NF-κB luciferase assay, A549 or H1975 cells were infected with the κB-luciferse construct PLANFκBluc and stably selected with puromycin or hygromycin. The” for “The”, “interleukin-1 for four hours.” for “IL-1.”

[8] = system: H1975 cells; experiment: PARP cleavage Western blot; format: cell-based; conditions: 5 μM quinacrine, time course

IC50 [4] [µM] | Compound | IC50 [1] [µM] | half life [2] | route of clearance [3] | IL-1-induced NF-κB-dependent luciferase reporter activity [5] | anti-tumor effect [6] | NF-κB-dependent luciferase reporter activity ([7]; A549 or H1975 reporter cells, 4 h treatment, relative to untreated control) | NF-κB activity ([7]; general statement of the inventors) | Apoptosis by PARP cleavage [8]
10 to 20 | C#Cc1cccc(Nc2ncnc3cc(OCCOC)c(OCCOC)cc23)c1 [erlotinib] | ~0.02 | about 36 hours | cleared predominantly by CYP3A4 methabolism | – | – | – | – | –
1 to 2 | CCN(CC)CCCC(C)Nc1c2ccc(Cl)cc2nc2ccc(OC)cc12 (stereo not shown) [quinacrine] | – | – | – | suppresses interleukin-1 (IL-1)-induced NF-κB-dependent luciferase reporting activity | anti-tumor effect | suppresses NF-κB-dependent luciferase reporter activity | profoundly suppresses NF-κB activity | time-dependent increase of PARP cleavage
